Experiments:
Test in all cases: Test C preemergence
Format in all cases: in vivo
[1] = tested on: Nightshade
[2] = tested on: Sunflower; conditions: Rate 62 g/ha; scale 0 to 100, 0 no effect, 100 complete control
[3] = tested on: Surinam grass (Brachiaria decumbens)
Outline: (§1)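 Pre- and postemergence treatments used a non-phytotoxic solvent/surfactant formulation; post-treated plants measured 2 to 18 cm. Greenhouse hold 12–14 d; % control estimated visually relative to controls.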

[4] = tested on: bermudagrass (Cynodon dactylon)
Outline: as §1

[5] = tested on: cocklebur (Xanthium strumarium)
Outline: as §1

[6] = tested on: common ragweed (Ambrosia elatior)
Outline: as §1

[7] = tested on: corn (Zea mays)
Outline: as §1

[8] = tested on: crabgrass (Digitaria sanguinalis)
Outline: as §1

[9] = tested on: giant foxtail (Setaria faberii)
Outline: as §1

[10] = tested on: goosegrass (Eleusine indica)
Outline: as §1

[11] = tested on: johnsongrass (Sorghum halepense)
Outline: as §1

[12] = tested on: kochia (Kochia scoparia)
Outline: as §1

[13] = tested on: lambsquarters (Chenopodium album)
Outline: as §1

[14] = tested on: morningglory (Ipomoea hederacea)
Outline: as §1

[15] = tested on: pigweed (Amaranthus retroflexus)
Outline: as §1

[16] = tested on: soybean (Glycine max)
Outline: as §1

[17] = tested on: velvetleaf (Abutilon theophrasti)
Outline: as §1

[18] = tested on: woolly cupgrass (Eriochloa villosa)
Outline: as §1

[19] = tested on: yellow nutsedge (Cyperus esculentus)
Outline: as §1

[20] = tested on: Nightshade; conditions: Rate 250 g/ha, visual evaluation after 12 to 14 days
[21] = Rate 62 g/ha, scale 0 to 100, 0 no effect, 100 complete control
[22] = preemergence, Rate 31 g/ha, scale 0 to 100
[23] = preemergence, Rate 250 g/ha, visual evaluation after 12 to 14 days
[24] = preemergence, Rate 125 g/ha, scale 0 to 100, 0 no effect, 100 complete control

CC(C)(C)c1ccn(C2CCN(c3ccc(Cl)c(Cl)c3)C2=O)n1 (stereo not shown) [Compound 34] was tested, and the “Plant response rating, Nightshade” value ([1]; Rate 31 g/ha, scale 0 to 100) was 0, the “Plant response rating, Nightshade” value [1, 21] was 0 and the “Plant response rating, Nightshade” value ([1]; Rate 125 g/ha, scale 0 to 100, 0 no effect, 100 complete control) was 0. The “Plant response rating, Sunflower” value [2] was 0, the “Plant response rating, Surinam grass” value [3, 21] was 0 and the “Plant response rating, Surinam grass” value [3, 22] was 0. The “Plant response rating (0 to 100), Surinam grass” value [3, 23] was 0, the “Plant response rating, Surinam grass” value [3, 24] was 0 and the “Plant response rating, Bermudagrass” value [4, 21] was 80. The “Plant response rating, Bermudagrass” value [4, 22] was 0, the “Plant response rating (0 to 100 where 0 is no effect and 100 is complete control), Bermudagrass” value [4, 23] was 100 and the “Plant response rating, Bermudagrass” value [4, 24] was 90. The “Plant response rating, Cocklebur” value [5, 21] was 0, the “Plant response rating, Cocklebur” value [5, 22] was 0 and the “Plant response rating (0 to 100), Cocklebur” value [5, 23] was 0. For the same compound, the “Plant response rating, Cocklebur” value [5, 24] was 0, the “Plant response rating, Ragweed, Common” value [6, 21] was 0 and the “Plant response rating, Ragweed, Common” value [6, 22] was 0. For the same compound, the “Plant response rating (0 to 100), Ragweed, Common” value [6, 23] was 0, the “Plant response rating, Ragweed, Common” value [6, 24] was 0 and the “Plant response rating, Corn” value [7, 21] was 0. The “Plant response rating, Corn” value [7, 22] was 0, the “Plant response rating (0 to 100), Corn” value [7, 23] was 0 and the “Plant response rating, Corn” value [7, 24] was 0. For the same compound, the “Plant response rating, Crabgrass” value [8, 21] was 60, the “Plant response rating, Crabgrass” value [8, 22] was 0 and the “Plant response rating (0 to 100), Crabgrass” value [8, 23] was 100. For the same compound, the “Plant response rating, Crabgrass” value [8, 24] was 70, the “Plant response rating, Foxtail, Giant” value [9, 21] was 30 and the “Plant response rating, Foxtail, Giant” value [9, 22] was 30. For the same compound, the “Plant response rating (0 to 100), Foxtail, Giant” value [9, 23] was 50, the “Plant response rating, Foxtail, Giant” value [9, 24] was 0 and the “Plant response rating, Goosegrass” value [10, 21] was 80. For the same compound, the “Plant response rating, Goosegrass” value [10, 22] was 20, the “Plant response rating (0 to 100), Goosegrass” value [10, 23] was 100 and the “Plant response rating, Goosegrass” value [10, 24] was 80. The “Plant response rating, Johnsongrass” value [11, 21] was 0, the “Plant response rating, Johnsongrass” value [11, 22] was 0 and the “Plant response rating (0 to 100), Johnsongrass” value [11, 23] was 0. For the same compound, the “Plant response rating, Johnsongrass” value [11, 24] was 0, the “Plant response rating, Kochia” value [12, 21] was 100 and the “Plant response rating, Kochia” value [12, 22] was 100. For the same compound, the “Plant response rating (0 to 100), Kochia” value [12, 23] was 100, the “Plant response rating, Kochia” value [12, 24] was 100 and the “Plant response rating, Lambsquarters” value [13, 21] was 90. For the same compound, the “Plant response rating, Lambsquarters” value [13, 22] was 90, the “Plant response rating (0 to 100), Lambsquarters” value [13, 23] was 100 and the “Plant response rating, Lambsquarters” value [13, 24] was 100. The “Plant response rating, Morningglory” value [14, 21] was 0, the “Plant response rating, Morningglory” value [14, 22] was 0 and the “Plant response rating (0 to 100), Morningglory” value [14, 23] was 0. The “Plant response rating, Morningglory” value [14, 24] was 0, the “Plant response rating, Pigweed” value [15, 21] was 100 and the “Plant response rating, Pigweed” value [15, 22] was 0. The “Plant response rating (0 to 100), Pigweed” value [15, 23] was 40, the “Plant response rating, Pigweed” value [15, 24] was 100 and the “Plant response rating, Soybean” value [16, 21] was 0. For the same compound, the “Plant response rating, Soybean” value [16, 22] was 0, the “Plant response rating (0 to 100), Soybean” value [16, 23] was 0 and the “Plant response rating, Soybean” value [16, 24] was 0. For the same compound, the “Plant response rating, Velvetleaf” value [17, 21] was 0, the “Plant response rating, Velvetleaf” value [17, 22] was 0 and the “Plant response rating (0 to 100), Velvetleaf” value [17, 23] was 0. The “Plant response rating, Velvetleaf” value [17, 24] was 0, the “Plant response rating, Cupgrass, Woolly” value [18, 21] was 20 and the “Plant response rating, Cupgrass, Woolly” value [18, 22] was 0. For the same compound, the “Plant response rating (0 to 100), Cupgrass, Woolly” value [18, 23] was 80, the “Plant response rating, Cupgrass, Woolly” value [18, 24] was 20 and the “Plant response rating, Nutsedge” value [19, 21] was 0. For the same compound, the “Plant response rating, Nutsedge” value [19, 22] was 0, the “Plant response rating (0 to 100), Nutsedge” value [19, 23] was 0 and the “Plant response rating, Nutsedge” value [19, 24] was 0. The “Plant response rating (0 to 100), Nightshade” value [20] was 0.

Reference: patent publication US7138361B2, “Herbicidal heterocycles” (E. I. du Pont de Nemours and Company, priority 2000, dated 2006)
